target: T1, HAT domain of human p300 (Homo sapiens, UniProt Q09472); assay: p300 HAT inhibition assay (3H-Ac-CoA, histone H3 (1-21) peptide); format: biochemical; settings: not given
T1 construct: The HAT domain (1195-1673) of human p300 was cloned, inserted into pGEX-KG vector; made in house; host or cells: E. coli BL21-CodonPlus
T1 sequence (Q09472 1195-1673): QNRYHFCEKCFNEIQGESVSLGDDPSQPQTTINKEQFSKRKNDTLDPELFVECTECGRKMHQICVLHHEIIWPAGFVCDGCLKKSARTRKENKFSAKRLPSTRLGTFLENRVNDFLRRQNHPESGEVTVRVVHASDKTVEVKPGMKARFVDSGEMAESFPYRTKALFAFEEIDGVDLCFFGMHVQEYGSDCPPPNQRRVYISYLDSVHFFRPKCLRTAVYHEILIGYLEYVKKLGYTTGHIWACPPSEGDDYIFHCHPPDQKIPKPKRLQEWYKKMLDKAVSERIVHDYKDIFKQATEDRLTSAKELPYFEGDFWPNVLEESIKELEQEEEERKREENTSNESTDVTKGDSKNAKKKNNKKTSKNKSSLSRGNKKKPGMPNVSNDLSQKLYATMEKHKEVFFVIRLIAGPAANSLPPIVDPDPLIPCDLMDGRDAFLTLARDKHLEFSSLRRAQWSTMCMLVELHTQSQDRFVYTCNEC
Experimental: A biochemical assay to determine the activity and inhibition of recombinant HAT domain of human p300 was developed, using the substrate histone H3 (1-21) peptide and the ^3H-labeled cofactor Ac—CoA.
The HAT domain (1195-1673) of human p300 was cloned, inserted into pGEX-KG vector and the DNA sequence was verified by sequencing. The p300-HAT expression plasmid was transformed into E. coli BL21-CodonPlus strain (Agilent) and cultured at 37° C. in LB medium containing ampicillin (50 µg/mL) and chloramphenicol (34 µg/mL). After the optical density of the bacterial culture reached ~0.9 at 600 nm, p300 HAT expression was induced by adding 300 µM isopropylthiogalactoside (IPTG) at 18° C. for 48 hours. Cells were collected, lysed, centrifuged for 20 min at 20,000 rpm. The supernatant was subjected to column chromatography with glutathione sepharose resins. […] CBP, PCAF and Myst3 HATs were obtained using similar methods.
To determine inhibitory activity, a compound with concentrations ranging from 100 nM to 10 µM was incubated with p300-HAT (10 nM) in 20 µL of 50 mM phosphate buffer (pH = 7.0) containing 0.01% Brij-35 for 10 min at 25° C. […] After 30 min at 25° C., the reaction was stopped by adding 6 N formic acid (5 µL). 20 µL of reaction mixture was then transferred to a small piece of P81 filter paper (Whatman) that binds histone H3 peptide. The filter paper was washed 3x with 50 mM NaHCO3, dried, and transferred into a scintillation vial containing 2 mL of scintillation cocktail. Radioactivity on the filter paper was measured with a Beckman LS-6500 scintillation counter. IC50 values were obtained by using a standard sigmoidal dose response curve fitting in Prism (version 5.0, GraphPad Software, Inc., La Jolla, CA). IC50 values were the mean values from at least three experiments.

**Q.** `CC(C)(C)c1ccc(-c2cc(COCC3CCNCC3)sc2-c2ccc(C(C)(C)C)cc2)cc1` [Compound 13] was tested. Which “inhibitory activity against p300 HAT (in words)” value did it give?
**A.** complete loss of inhibitory activity

**Q.** Which “inhibitory activity against p300 HAT (in words)” value does the source give for `CCCCc1ccc(-c2cc(CNCC3CCNCC3)sc2-c2ccc(CCCC)cc2)cc1` [Compound 23] here?
**A.** Loss of activity

same assay, conditions: p300 HAT

**Q.** Which “activity reduction relative to compound 12” value does the source give for `CC(C)(C)c1ccc(-c2cc(CNCCC3CCNCC3)sc2-c2ccc(C(C)(C)C)cc2)cc1` [Compound 15] here?
**A.** ~3 fold

**Q.** With `CC(C)c1ccc(-c2cc(CNCC3CCNCC3)sc2-c2ccc(C(C)C)cc2)cc1` [Compound 22] as the compound, how does the “activity reduction relative to compound 12” value read?
**A.** ~ 8 x

same assay, conditions: read-out: IC50 against p300 HAT

**Q.** With `CC(C)(C)c1ccc(-c2cc(C(=O)NCC3CCNCC3)sc2-c2ccc(C(C)(C)C)cc2)cc1` [Compound 1] as the compound, how does the IC50 read?
**A.** 8.6 µM

**Q.** `c1cc(-c2ccc(-c3cc(CNCC4CCNCC4)sc3-c3ccc(-c4ccoc4)cc3)cc2)co1` [Compound 11] was tested. Which IC50 did it give?
**A.** 1.7 µM

**Q.** Which IC50 does the source give for `CC(C)(C)c1ccc(-c2cc(CNCCC3CCNCC3)sc2-c2ccc(C(C)(C)C)cc2)cc1` [Compound 15] here?
**A.** 2.2 µM

**Q.** How did the IC50 turn out when `CC(C)(C)c1ccc(-c2cc(CNCCCN)sc2-c2ccc(C(C)(C)C)cc2)cc1` [Compound 16] was run?
**A.** 3 µM

**Q.** `CN(Cc1cc(-c2ccc(C(C)(C)C)cc2)c(-c2ccc(C(C)(C)C)cc2)s1)CC1CCNCC1` [Compound 20] was tested. Which IC50 did it give?
**A.** 4.4 µM

**Q.** How did the IC50 turn out when `CC(C)(C)c1ccc(-c2cc(CN(C=O)CC3CCNCC3)sc2-c2ccc(C(C)(C)C)cc2)cc1` [Compound 21] was run?
**A.** 7 µM

**Q.** With `CC(C)c1ccc(-c2cc(CNCC3CCNCC3)sc2-c2ccc(C(C)C)cc2)cc1` [Compound 22] as the compound, how does the IC50 read?
**A.** 5.4 µM

**Q.** Which IC50 does the source give for `CC(C)(C)c1ccc(-c2cc(CNCC3CCNCC3)oc2-c2ccc(C(C)(C)C)cc2)cc1` [Compound 34] here?
**A.** 9.8 µM

tested on: Kasumi-1 leukemia cells; assay: Cellular histone acetylation, Western blot; format: cell-based; settings: Kasumi-1 cells, 12 h, 5 and 10 µM
Experimental: Kasumi-1 leukemia cells were treated with increasing concentrations of these compounds for 12 h. Histone was extracted and subjected to electrophoresis separation and Western blot staining to determine levels of acetylation at various lysine residues. […] H3K27 seems to be the most sensitive cellular substrate of p300 HAT. […] This might be due to different mode of inhibition or cell permeability for the two compounds.
About 10^6 Kasumi-1 cells per well were incubated with compound 11 at 0, 5 and 10 µM for 12 hours. Histone proteins were extracted using EpiQuik total histone extraction kit (Epigentek), according to the manufacturer’s protocol. Equal amounts of histones (2 µg) were separated on SDS-PAGE and transferred to PVDF membranes. The blots were probed with primary antibodies against H3K9Ac, H3K18Ac, H3K27Ac and H3 (Cell Signaling), followed by anti-rabbit IgG (Thermo Scientific) secondary antibodies.

**Q.** With `CC1=NN(c2ccc(C(=O)O)cc2)C(=O)/C1=C\c1ccc(-c2cc(C)c(C)cc2[N+](=O)[O-])o1` [Compound C646, reference compound] as the compound, how does the “cellular acetylation of histone H3K9, H3K18 and H3K27” value read?
**A.** inhibited

— patent publication US20230167101A1, “NOVEL INHIBITORS OF HISTONE […] P300/CBP FOR CANCER THERAPY” (BAYLOR COLLEGE OF MEDICINE, priority 2020, published 2023)
